Positions count from the first letter of the chain named. Where “and” joins values, the source holds several entries; their conditions need not be identical. Identical values can stand only once.
Columns and labels:
murine SR-BI, isoform 1 = molecular target: T1, murine SR-BI, isoform 1 (Mus musculus, UniProt Q61009); experiment: DiI-HDL uptake assay (primary assay); format: cell-based; details: for IC50: ldlA[mSR-BI] cells, 3 hours with compound
T1 construct: expressed in transfected cells; host or cells: ldlA[mSR-BI], Chinese hamster ovary (CHO) cells lacking LDL receptor (Krieger Laboratory)
T1 sequence (Q61009 1-509): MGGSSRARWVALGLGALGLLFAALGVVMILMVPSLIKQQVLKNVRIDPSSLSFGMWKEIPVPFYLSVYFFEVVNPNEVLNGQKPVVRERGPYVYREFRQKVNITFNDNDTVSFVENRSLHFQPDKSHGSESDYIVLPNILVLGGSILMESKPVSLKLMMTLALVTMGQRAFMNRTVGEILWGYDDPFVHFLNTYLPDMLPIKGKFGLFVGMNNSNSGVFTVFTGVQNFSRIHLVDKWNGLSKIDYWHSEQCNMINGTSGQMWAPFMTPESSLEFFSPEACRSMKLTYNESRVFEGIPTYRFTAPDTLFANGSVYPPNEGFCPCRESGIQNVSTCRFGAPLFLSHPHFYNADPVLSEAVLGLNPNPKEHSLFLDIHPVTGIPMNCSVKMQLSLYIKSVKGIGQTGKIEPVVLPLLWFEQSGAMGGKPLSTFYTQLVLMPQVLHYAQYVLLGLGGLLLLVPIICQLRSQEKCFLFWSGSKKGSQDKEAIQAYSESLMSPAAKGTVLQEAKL
Protocol: The following cell lines were used in this study: • ldlA[mSR-BI] is a Chinese hamster ovary (CHO) cell line that overexpresses murine SR-BI, isoform 1 (NP_058021) and was obtained from the (Krieger Laboratory). This cell line was used for the primary assay and several secondary assays. […] Assays DiI-HDL Uptake Assay (Primary Assay AID Nos. 488896, 493194, 540354 588392, 588553, 588548, 588754, 588828, 588833)
ldlA[mSR-BI] cells were plated into 384-well plates at 30 μl per well and incubated overnight. As a measurable surrogate for cholesterol uptake, human HDL particles were treated with the lipophilic fluorescent dye DiI and exposed to ldlA[mSR-BI] cells in lipoprotein-free media (Ham's F12/0.5% fatty acid-free Bovine Serum Albumin (BSA)/25 mM HEPES pH 7.4 plus 10 μg protein/ml DiI-HDL). Cells took up the DiI via SR-BI over 3 hours in the presence of compound. After significant uptake of the DiI, the cells became fluorescent. The level of fluorescence correlates with the amount of DiI uptake and can be measured with a standard plate reader (here a PerkinElmer EnVision plate reader was used). The uptake of lipid (represented by DiI) was inhibited by the positive control compound BLT-1 or with an excess of HDL untreated with DiI. Primary HTS data were analyzed in Genedata Screener Assay Analyzer, and were normalized against DMSO and the positive control (1 μM BLT-1). For the HTS, the average of two replicates was used to rank order activity and to choose compounds for retests. For dose studies, percent (%) activity was determined for each concentration and the concentration response curves (CRCs) were generated with Genedata Condeseo.
To identify novel inhibitors, SR-BI-mediated lipid uptake was measured in an engineered cell line that minimized potential uptake by other mechanisms, including via the LDL receptor (1). ldlA[mSR-BI] cells overexpress murine isoform 1 and selectively take up HDL lipid at similar levels as “has been reported for cultured mouse adrenal cells, perfused organs, and liver, adrenal gland and ovary in vivo” (1). This primary cell-based assay was used in a pilot screen that identified BLTs 1 through 5. The assay was slightly modified from the original protocol of Nieland et al. to increase throughput and to ease automation procedures.
Briefly, the plate reader was switched to a Perkin-Elmer EnVision, several washing steps were eliminated, and the cell number per well was reduced without impacting the robustness of the assay. The automated assay was first tested with a validation set of 2,240 compounds. These compounds were tested in duplicate with in-plate neutral (DMSO) and positive (1 μM BLT-1) controls. Robustness, reproducibility, and variability parameters were analyzed before initiating the full HTS. The HTS was run over the course of several weeks. Data were normalized relative to controls, and plate patterns were corrected using a multiplicative algorithm in Genedata Screener Assay Analyzer. For each compound, the average of the two replicates was determined and used for subsequent analysis.

C384S SR-BI = molecular target: T2, C384S SR-BI (Mus musculus, UniProt Q61009, C384S); experiment: Radioactive HDL uptake assay (mutant SR-BI); format: cell-based, murine; details: Cys384 converted to serine
T2 construct: expressed in transfected cells; host or cells: CHO cell line lacking LDL receptors, overexpressing C384S SR-BI
T2 sequence (Q61009 1-509 C384S): T1 sequence (Q61009 1-509) with C384S
Text: Radioactive HDL Uptake Assay (mutant SR-BI) (SA 9: AID No. 588837)
BLT-1 is known to interact at cysteine 384 of SR-BI (16). […] This assay is used to determine if the compounds work in a similar fashion to BLT-1 and require Cys384 to alter the binding of HDL particles and uptake of the lipid to the mutant SR-BI scavenger receptor, using an alternative means of labeling HDL particles and avoiding any type of fluorescence measurement. To measure this lipid uptake event, HDL particles are labeled with [^3H]cholesteryl ester and added to C384S SR-BI cells. Cells take up HDL lipid via the mutant SR-BI in 2 to 3 hours. After significant uptake of the HDL lipid, the radiolabel can be detected by liquid scintillation counting. The level of radioactivity correlates with the amount of HDL lipid uptake. The uptake of lipid from HDL particles can be inhibited by the compound BLT-1 or when co-treated with an excess of unlabeled HDL. The mSR-BI cells utilized in the assay are a CHO cell line lacking expression of the LDL receptors and overexpressing the mutant scavenger receptor, C384S SR-BI.

Compound | selectivity (murine SR-BI, isoform 1) | higher potency than ITX-5061 (murine SR-BI, isoform 1; AID No. 588828) | IC50 (murine SR-BI, isoform 1) | uptake of HDL in C384S mutant background (in words) (C384S SR-BI) | reduction in signal in primary HTS (murine SR-BI, isoform 1; 1 μM, positive control)
C[C@H](C(=O)NC1CCCC1)N(C(=O)Cn1nnc(-c2ccc3c(c2)OCO3)n1)C1CCCCC1 [ML279, (R)-2-(2-(5-(Benzo[d][1,3]dioxol-5-yl)-2H-tetrazol-2-yl)-N-cyclohexylacetamido)-N-cyclopentylpropanamide] | greater than 1000 | approximately 15 fold | 0.016 µM and 0.0162 µM | can reduce uptake and efflux in the mutant background | –
CCCCCCC1CCCC1=NNC(N)=S (stereo not shown) [BLT-1, reference compound] | – | – | 0.0108 µM | cannot reduce uptake of HDL or efflux of cholesterol | > 2.2 fold

From US9884851B2, “Heterocycle-bisamide inhibitors of scavenger receptor BI” (THE BROAD INSTITUTE, INC., priority 2012, dated 2018)
